Results from ChEMBL document CHEMBL5465560, “Selectivity Literature for EUbOPEN Chemogenomic Library” (2024).

How the values were obtained:
[1] = molecular target: Citron Rho-interacting kinase (Homo sapiens) (UniProt O14578); assay: Selectivity interaction (KinomeScan (DiscoverX)) EUB0000229b CIT; conditions: at 10 µM
[2] = molecular target: Microtubule-associated serine/threonine-protein kinase 3 (Homo sapiens) (UniProt O60307); assay: Selectivity interaction (Kinase panel (KiNativ target engagement assay in Jurkat cells)) EUB0001635a MAST3; type: cell-based; conditions: Selectivity number of off-targets 0.0, Selectivity number of targets 233.0, Source Knowledge https://www.sciencedirect.com/science/article/pii/S2451945619300674?via%3Dihub, at 1 µM
[3] = molecular target: MAP kinase-interacting serine/threonine-protein kinase 2 (Homo sapiens, UniProt Q9HBH9); conditions: at 10 µM
Sequence of MAP kinase-interacting serine/threonine-protein kinase 2 (Q9HBH9 whole entry, looked up): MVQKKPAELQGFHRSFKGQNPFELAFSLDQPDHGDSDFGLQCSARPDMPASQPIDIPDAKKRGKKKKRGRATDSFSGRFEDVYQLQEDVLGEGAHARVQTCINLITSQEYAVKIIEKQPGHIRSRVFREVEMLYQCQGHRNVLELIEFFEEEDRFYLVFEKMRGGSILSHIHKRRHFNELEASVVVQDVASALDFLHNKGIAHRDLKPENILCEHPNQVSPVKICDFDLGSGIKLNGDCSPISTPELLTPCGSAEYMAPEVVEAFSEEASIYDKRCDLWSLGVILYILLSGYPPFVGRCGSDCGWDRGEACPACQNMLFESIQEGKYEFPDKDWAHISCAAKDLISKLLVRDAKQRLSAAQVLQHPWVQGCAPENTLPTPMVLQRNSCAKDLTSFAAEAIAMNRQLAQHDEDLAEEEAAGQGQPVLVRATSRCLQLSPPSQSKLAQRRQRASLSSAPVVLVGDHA

[4] = molecular target: Bromodomain-containing protein 4 (Homo sapiens, UniProt O60885); assay: Selectivity interaction (Kinase panel (DSF assay)) EUB0001559a BRD4
[5] = molecular target: T1, Tyrosine-protein kinase ITK/TSK (Homo sapiens) (UniProt Q08881); assay: Selectivity interaction (Ambit KINOMEscan and KiNATiv profiling in Jurkat cells) EUB0000090b ITK; type: cell-based; conditions: at 1 µM
T1 sequence (whole entry): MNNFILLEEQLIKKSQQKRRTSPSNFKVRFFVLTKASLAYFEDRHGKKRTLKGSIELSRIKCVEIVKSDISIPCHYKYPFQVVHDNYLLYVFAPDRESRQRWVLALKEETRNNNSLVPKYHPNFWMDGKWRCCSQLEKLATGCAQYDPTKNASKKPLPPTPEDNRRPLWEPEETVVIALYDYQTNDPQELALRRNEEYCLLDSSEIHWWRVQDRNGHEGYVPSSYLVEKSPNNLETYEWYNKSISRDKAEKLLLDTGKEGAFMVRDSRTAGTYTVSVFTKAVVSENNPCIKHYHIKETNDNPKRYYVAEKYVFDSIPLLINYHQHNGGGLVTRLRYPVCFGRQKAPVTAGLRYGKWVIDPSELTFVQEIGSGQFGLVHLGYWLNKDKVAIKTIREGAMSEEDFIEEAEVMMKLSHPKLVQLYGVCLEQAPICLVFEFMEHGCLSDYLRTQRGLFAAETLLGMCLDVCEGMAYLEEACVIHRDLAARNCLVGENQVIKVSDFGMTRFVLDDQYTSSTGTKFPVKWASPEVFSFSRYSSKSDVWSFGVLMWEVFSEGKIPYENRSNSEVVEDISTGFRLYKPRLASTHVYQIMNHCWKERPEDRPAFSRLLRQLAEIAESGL

[6] = molecular target: Tyrosine-protein kinase Lyn (Homo sapiens, UniProt P07948); assay: Selectivity interaction (KinomeScan (DiscoverX)) EUB0000045b LYN
Sequence of Tyrosine-protein kinase Lyn (P07948 2-512 limits assumed): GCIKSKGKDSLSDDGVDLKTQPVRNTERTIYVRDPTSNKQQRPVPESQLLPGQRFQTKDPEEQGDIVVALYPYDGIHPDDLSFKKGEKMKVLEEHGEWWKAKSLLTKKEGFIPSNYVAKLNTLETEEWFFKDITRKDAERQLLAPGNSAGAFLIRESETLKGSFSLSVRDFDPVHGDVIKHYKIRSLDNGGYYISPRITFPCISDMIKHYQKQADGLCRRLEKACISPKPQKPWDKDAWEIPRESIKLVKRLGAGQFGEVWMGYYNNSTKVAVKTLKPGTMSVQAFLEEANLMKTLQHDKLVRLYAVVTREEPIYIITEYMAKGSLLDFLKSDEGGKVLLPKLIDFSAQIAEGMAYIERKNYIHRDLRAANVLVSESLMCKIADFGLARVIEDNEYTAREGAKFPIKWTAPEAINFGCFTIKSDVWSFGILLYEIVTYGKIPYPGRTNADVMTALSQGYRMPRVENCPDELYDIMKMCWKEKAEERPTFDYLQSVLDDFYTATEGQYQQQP

[7] = system: Fibroblast growth factor receptor 3 (Homo sapiens), P22607 [G697C]; conditions: at 10 µM
Sequence of Fibroblast growth factor receptor 3 (Homo sapiens), P22607 [G697C] (P22607 whole entry G697C): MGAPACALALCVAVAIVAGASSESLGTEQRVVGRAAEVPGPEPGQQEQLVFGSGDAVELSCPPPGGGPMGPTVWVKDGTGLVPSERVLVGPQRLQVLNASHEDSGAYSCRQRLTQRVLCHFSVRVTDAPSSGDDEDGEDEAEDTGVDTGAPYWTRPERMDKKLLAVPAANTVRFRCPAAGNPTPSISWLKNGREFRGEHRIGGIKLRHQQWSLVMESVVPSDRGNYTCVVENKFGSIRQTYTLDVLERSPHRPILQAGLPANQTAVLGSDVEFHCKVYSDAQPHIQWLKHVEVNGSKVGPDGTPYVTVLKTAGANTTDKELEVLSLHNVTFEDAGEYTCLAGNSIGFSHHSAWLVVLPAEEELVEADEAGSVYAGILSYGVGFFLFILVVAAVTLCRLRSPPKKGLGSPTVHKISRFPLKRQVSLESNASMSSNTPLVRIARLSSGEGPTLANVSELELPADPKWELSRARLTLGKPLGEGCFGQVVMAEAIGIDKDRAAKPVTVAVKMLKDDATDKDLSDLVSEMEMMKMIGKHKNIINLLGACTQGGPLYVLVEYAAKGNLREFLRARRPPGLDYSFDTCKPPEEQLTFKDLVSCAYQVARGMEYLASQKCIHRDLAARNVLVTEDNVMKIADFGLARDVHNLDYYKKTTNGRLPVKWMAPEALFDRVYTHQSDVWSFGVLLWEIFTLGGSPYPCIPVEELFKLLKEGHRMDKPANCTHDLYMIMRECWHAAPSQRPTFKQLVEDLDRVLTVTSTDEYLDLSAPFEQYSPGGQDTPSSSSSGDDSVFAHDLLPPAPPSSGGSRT

[8] = molecular target: Ribosomal protein S6 kinase alpha-3 (Homo sapiens, UniProt P51812); assay: Selectivity interaction (KinomeScan (DiscoverX)) EUB0000655a RPS6KA3; conditions: at 10 µM
[9] = molecular target: Serine/threonine-protein kinase PLK3 (Homo sapiens, UniProt Q9H4B4); assay: Selectivity interaction (KinomeScan (DiscoverX)) EUB0000655a PLK3; conditions: at 10 µM
[10] = Selectivity interaction (KinomeScan (DiscoverX)) EUB0000607a CDPK1; conditions: at 10 µM
[11] = molecular target: T2, Interleukin-1 receptor-associated kinase 3 (Homo sapiens) (UniProt Q9Y616); assay: Selectivity interaction (KinomeScan (DiscoverX)) EUB0000607a IRAK3; conditions: at 10 µM
T2 sequence (whole entry): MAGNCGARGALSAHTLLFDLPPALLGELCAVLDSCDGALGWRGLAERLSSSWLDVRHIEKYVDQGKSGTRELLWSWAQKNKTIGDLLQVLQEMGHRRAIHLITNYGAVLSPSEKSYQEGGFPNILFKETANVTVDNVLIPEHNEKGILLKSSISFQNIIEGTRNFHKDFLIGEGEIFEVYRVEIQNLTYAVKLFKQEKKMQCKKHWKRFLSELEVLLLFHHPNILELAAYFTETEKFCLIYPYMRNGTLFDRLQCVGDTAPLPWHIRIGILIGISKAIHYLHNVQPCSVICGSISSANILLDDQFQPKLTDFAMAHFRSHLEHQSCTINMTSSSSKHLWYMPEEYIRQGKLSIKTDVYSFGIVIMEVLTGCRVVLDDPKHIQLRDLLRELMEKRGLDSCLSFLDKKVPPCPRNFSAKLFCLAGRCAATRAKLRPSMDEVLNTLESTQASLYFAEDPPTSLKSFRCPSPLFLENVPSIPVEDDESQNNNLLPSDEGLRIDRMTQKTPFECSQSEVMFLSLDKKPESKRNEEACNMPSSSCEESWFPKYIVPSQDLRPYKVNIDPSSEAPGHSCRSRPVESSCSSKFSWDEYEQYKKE

[12] = molecular target: Serine/threonine-protein kinase 38 (Homo sapiens) (UniProt Q15208); assay: Selectivity interaction (LanthaScreen Eu Kinase Binding Assay) EUB0001632a STK38; conditions: at 10 µM
Sequence of Serine/threonine-protein kinase 38 (Homo sapiens) (Q15208 2-465 limits assumed): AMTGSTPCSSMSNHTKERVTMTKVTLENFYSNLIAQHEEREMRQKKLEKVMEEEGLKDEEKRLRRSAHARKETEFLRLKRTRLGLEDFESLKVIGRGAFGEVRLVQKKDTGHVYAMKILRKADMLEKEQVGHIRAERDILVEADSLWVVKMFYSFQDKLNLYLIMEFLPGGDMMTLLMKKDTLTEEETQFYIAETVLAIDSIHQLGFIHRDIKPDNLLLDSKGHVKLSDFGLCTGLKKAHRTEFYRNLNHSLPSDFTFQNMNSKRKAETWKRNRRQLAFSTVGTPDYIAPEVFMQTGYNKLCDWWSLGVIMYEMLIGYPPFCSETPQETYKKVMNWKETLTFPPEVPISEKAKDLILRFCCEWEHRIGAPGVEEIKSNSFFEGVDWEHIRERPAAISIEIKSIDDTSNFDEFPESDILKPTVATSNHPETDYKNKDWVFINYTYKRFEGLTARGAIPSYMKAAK

[13] = molecular target: T3, Serine/threonine-protein kinase Chk1 (Homo sapiens) (UniProt O14757); assay: Selectivity interaction (Kinase panel (Z-LYTE Assay)) EUB0001632a CHEK1; conditions: at 10 µM
T3 sequence (whole entry): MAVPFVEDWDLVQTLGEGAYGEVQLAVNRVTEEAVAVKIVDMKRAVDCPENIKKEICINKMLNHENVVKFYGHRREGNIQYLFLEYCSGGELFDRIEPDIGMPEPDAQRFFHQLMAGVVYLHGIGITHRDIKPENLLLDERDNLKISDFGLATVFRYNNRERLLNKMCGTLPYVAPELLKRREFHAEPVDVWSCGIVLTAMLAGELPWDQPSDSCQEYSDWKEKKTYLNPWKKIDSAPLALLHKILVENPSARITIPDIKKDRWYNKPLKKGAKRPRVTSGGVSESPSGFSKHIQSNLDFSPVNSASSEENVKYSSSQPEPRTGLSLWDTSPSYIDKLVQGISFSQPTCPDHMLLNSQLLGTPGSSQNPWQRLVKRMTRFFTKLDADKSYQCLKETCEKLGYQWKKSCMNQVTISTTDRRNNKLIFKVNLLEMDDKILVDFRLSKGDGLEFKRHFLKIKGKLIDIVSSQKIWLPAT

[14] = molecular target: Protein kinase C beta type (Homo sapiens, UniProt P05771); assay: Selectivity interaction (ProQinase) EUB0000171b PRKCB; conditions: at 5 µM
Sequence of Protein kinase C beta type (P05771 2-671 limits assumed): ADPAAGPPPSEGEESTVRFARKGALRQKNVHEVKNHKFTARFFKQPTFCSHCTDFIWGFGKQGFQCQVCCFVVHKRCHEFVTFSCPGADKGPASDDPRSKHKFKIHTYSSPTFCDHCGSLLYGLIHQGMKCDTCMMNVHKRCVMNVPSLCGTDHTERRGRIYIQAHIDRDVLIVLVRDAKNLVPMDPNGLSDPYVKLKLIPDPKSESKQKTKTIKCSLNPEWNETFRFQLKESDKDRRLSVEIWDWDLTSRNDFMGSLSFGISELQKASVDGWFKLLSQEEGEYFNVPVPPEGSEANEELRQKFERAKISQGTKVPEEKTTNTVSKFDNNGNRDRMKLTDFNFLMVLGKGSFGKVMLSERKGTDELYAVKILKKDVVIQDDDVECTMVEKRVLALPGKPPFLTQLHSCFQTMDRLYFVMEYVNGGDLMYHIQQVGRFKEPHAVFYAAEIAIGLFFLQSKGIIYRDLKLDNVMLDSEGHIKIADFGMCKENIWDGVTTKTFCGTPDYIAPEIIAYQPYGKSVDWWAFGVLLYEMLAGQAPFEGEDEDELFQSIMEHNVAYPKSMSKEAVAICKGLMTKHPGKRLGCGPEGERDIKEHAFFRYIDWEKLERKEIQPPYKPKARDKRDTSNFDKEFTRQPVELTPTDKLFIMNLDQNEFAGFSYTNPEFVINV

Sequence of Citron Rho-interacting kinase (Homo sapiens) (O14578 whole entry): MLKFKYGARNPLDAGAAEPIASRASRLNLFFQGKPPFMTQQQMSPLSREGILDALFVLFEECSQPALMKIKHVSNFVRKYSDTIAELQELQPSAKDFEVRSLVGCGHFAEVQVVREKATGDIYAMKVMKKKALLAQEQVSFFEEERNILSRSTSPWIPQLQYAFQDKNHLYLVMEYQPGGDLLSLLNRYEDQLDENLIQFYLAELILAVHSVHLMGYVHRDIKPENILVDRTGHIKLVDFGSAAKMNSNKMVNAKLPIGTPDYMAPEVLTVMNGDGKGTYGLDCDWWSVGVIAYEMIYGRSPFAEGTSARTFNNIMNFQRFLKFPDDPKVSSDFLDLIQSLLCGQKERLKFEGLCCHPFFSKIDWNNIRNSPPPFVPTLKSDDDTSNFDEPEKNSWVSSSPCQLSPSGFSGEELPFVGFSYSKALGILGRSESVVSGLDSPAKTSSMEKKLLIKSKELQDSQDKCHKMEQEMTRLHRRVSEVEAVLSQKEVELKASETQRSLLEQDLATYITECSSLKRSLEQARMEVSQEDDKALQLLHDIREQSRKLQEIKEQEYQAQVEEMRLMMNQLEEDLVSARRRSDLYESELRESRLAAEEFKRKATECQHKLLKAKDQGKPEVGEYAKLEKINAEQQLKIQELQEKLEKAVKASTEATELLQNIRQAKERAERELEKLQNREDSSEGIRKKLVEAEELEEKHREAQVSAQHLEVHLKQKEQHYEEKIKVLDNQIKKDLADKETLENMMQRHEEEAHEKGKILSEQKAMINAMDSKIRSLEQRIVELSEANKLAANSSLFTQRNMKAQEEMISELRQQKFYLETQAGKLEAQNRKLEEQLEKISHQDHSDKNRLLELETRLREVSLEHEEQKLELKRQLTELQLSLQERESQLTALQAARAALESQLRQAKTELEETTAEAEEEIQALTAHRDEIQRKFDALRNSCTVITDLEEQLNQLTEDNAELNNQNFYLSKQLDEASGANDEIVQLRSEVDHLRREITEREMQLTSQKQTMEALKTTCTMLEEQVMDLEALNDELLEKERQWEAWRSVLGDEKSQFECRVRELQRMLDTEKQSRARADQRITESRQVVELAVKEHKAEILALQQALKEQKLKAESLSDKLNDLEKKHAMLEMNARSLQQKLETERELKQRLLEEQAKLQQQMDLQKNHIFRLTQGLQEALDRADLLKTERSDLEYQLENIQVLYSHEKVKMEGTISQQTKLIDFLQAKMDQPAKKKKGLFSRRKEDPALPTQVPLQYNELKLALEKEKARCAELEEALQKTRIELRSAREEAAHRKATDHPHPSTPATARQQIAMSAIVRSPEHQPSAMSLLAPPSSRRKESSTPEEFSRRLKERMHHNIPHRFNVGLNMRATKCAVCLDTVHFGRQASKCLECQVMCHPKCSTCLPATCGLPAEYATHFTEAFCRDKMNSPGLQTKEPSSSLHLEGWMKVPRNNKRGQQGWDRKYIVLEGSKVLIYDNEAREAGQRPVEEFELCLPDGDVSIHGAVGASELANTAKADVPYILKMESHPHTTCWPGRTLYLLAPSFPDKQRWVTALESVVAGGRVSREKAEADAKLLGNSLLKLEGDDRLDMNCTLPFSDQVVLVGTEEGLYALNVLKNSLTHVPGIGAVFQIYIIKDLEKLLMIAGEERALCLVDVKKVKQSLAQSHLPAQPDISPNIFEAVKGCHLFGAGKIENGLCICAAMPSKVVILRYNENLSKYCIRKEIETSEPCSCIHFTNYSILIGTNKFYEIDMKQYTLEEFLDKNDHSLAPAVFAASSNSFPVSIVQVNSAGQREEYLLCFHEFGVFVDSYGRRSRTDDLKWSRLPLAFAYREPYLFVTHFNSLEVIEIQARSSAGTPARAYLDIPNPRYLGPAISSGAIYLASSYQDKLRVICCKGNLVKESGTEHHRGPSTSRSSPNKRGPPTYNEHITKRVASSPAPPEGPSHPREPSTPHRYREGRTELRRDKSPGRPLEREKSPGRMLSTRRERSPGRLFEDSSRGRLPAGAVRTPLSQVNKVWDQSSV

COc1cc(N(C)c2ccnc3ccc(C(F)(F)F)cc23)cc(OC)c1OC
% binding [1]: 93%

C=CC(=O)Nc1ccc(C(=O)Nc2[nH]nc3c2CN(C(=O)N[C@H](CN(C)C)c2ccccc2)C3(C)C)cc1
% of engagement [2]: -0.8%

CCN(CC)CCCCNc1ncc2cc(-c3cc(OC)cc(OC)c3)c(NC(=O)NC(C)(C)C)nc2n1
% of control [3]: 100%

CN(C(=O)c1cnn2cccnc12)c1cc2c(cc1N1CCOCC1)C(=O)N(C[C@@H](F)C(C)(C)O)C2
dTM [4]: -0.8 K

CN(C)C/C=C/C(=O)Nc1ccc(C(=O)N2CCCC(Nc3ncc(Cl)c(-c4c[nH]c5ccccc45)n3)C2)cc1 (stereo not given)
% of control [5]: 91%

C=CC(=O)Nc1cc(-n2c(=O)ccc3cnc4ccc(-c5ccc(NS(C)(=O)=O)cc5)cc4c32)ccc1C
% of control ([6]; at 1 µM): 92% | % of control ([6]; at 10 µM): 91%

Cc1cc([C@@H](C)Nc2ccccc2C(=O)O)c2nc(N3CCOCC3)cc(=O)n2c1 [AZD-6482]
% of control [7]: 100%

CN(C)CCOc1ccc(-c2nc(-c3ccncc3)c(-c3ccc4c(c3)CC/C4=N\O)[nH]2)cc1
% of control [8]: 67% | % of control [9]: 94%

CNC(=O)Nc1ccc(-c2nc(N3CC4CCC(C3)O4)c3cnn(C4CCC5(CC4)OCCO5)c3n2)cc1
% of control [10]: 86% | % of control [11]: 100%

Cn1cc(-n2cnc3c(NCc4nc5cc(Cl)c(Cl)cc5[nH]4)nc(N4CCOCC4)nc32)cn1
% of inhibition [12]: -27% | % of control [13]: 37.8%

C=CC(=O)Nc1cccc(C(=O)Nc2ccc(Nc3cc(-c4[nH]c(SC)nc4C)ccn3)cc2)c1
% of control [14]: 81%
